Results published in patent publication US9062048B2, “Cyclohexyl-azetidinyl antagonists of CCR2” (Janssen Pharmaceutica NV, priority 2010, dated 2015).

Molecular target: CCR2 (Homo sapiens (Human), UniProt P41597)
Assay: MCP-1 Receptor Binding Assay in THP-1 Cells;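 also: THP-1 is a human monocytic cell line, and nonspecific binding was defined with 1 µM unlabeled MCP-1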
Conditions: 0.5 nM 125I labeled MCP-1, 2 hours at 30° C., read-out: Inhibition of MCP-1 Binding IC50 MCP1B

CCR2, sequence (P41597 whole entry): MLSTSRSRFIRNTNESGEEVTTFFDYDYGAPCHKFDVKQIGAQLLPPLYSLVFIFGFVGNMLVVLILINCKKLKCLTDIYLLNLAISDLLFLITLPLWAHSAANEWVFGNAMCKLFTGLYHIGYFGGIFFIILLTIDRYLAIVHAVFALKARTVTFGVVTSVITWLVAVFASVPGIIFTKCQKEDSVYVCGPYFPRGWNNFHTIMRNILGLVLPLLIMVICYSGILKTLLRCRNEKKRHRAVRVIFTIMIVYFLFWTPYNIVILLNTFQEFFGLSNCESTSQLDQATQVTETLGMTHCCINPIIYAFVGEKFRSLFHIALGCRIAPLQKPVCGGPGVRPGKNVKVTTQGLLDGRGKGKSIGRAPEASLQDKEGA

Compound	IC50 [nM]
O=C(CNc1cc(C(F)(F)F)nc2ccc(C(F)(F)F)cc12)NC1CN([C@H]2CC[C@@](O)(c3nccs3)CC2)C1 [Example 24, 2-((2,6-bis(trifluoromethyl)quinolin-4-yl)amino)-N-(1((1r-4r)-4-hydroxy-4-(thiazol-2-yl)cyclohexyl)azetidin-3-yl)acetamide]	28
CCC(O)[C@H]1CC[C@@H](N2CC(NC(=O)CNc3cc(C(F)(F)F)nc4ccc(C(F)(F)F)cc34)C2)CC1 (stereo partly shown) [Example 25, 2-((2,6-bis(trifluoromethyl)quinolin-4-yl)amino)-N-(1((-1R,4s)-4-(1-hydroxypropyl)cyclohexyl)azetidin-3-yl)acetamide]	99
O=C(CNc1ccnc2ccc(C(F)(F)F)cc12)NC1CN([C@H]2CC[C@@](O)(c3nccs3)CC2)C1 [Example 27]	17
O=C(CNc1ncnc2ccc(C(F)(F)F)cc12)NC1CN([C@H]2CC[C@@H](C3(O)CC=CC3)CC2)C1 [Example 28]	23
CC(C)(O)[C@H]1CC[C@@H](N2CC(NC(=O)CNc3ncnc4ccc(C(F)(F)F)cc34)C2)CC1 [Example 29, N-(1-((1s,4s)-4-(2-hydroxypropan-2-yl)cyclohexyl)azetidin-3-yl)-2-((6-(trifluoromethyl)quinazolin-4-yl)amino)acetamide]	33
O=C(CNc1ncnc2ccc(C(F)(F)F)cc12)NC1CN([C@H]2CC[C@@H](C(O)C(F)(F)C(F)(F)C(F)(F)F)CC2)C1 (stereo partly drawn) [Example 35, N-(1-((1R,4s)-4-(2,2,3,3,4,4,4-heptafluoro-1-hydroxybutyl)cyclohexyl)azetidin-3-yl)-2-((6-(trifluoromethyl)quinazolin-4-yl)amino)acetamide]	270

The next lines start with the values.

IC50 [nM]	Compound
209	CCC(O)(CC)[C@H]1CC[C@@H](N2CC(NC(=O)CNc3ncnc4ccc(C(F)(F)F)cc34)C2)CC1 [Example 30, N-(1-((1s,4s)-4-(3-hydroxypentan-3-yl)cyclohexyl)azetidin-3-yl)-2-((6-(trifluoromethyl)quinazolin-4-yl)amino)acetamide]
300	C=CCC(O)(CC=C)[C@H]1CC[C@@H](N2CC(NC(=O)CNc3ncnc4ccc(C(F)(F)F)cc34)C2)CC1 [Example 31, N-(1-((1s,4s)-4-(4-hydroxyhepta-1,6-dien-4-yl)cyclohexyl)azetidin-3-yl)-2-((6-(trifluoromethyl)quinazolin-4-yl)amino)acetamide]
690	CCCC(O)(CCC)[C@H]1CC[C@@H](N2CC(NC(=O)CNc3ncnc4ccc(C(F)(F)F)cc34)C2)CC1 [Example 32, N-(1-((1s,4s)-4-(4-hydroxyheptan-4-yl)cyclohexyl)azetidin-3-yl)-2-((6-(trifluoromethyl)quinazolin-4-yl)amino)acetamide]
140	O=C(CNc1ncnc2ccc(C(F)(F)F)cc12)NC1CN([C@H]2CC[C@@H](C3CCCC3)CC2)C1 [Example 33, N-(1-((1s,4s)-4-cyclopentylcyclohexyl)azetidin-3-yl)-2-((6-(trifluoromethyl)quinazolin-4-yl)amino)acetamide]
73	O=C(CNc1ncnc2ccc(C(F)(F)F)cc12)NC1CN([C@H]2CC[C@@H](C(O)C(F)(F)F)CC2)C1 (stereo partly drawn) [Example 34, N-(1-((1R,4s)-4-(2,2,2-trifluoro-1-hydroxyethyl)cyclohexyl)azetidin-3-yl)-2-((6-(trifluoromethyl)quinazolin-4-yl)amino)acetamide]
75	C=C(C)[C@H]1CC[C@@H](N2CC(NC(=O)CNc3ncnc4ccc(C(F)(F)F)cc34)C2)CC1 [Example 36, N-(1-((1s,4s)-4-(prop-1-en-2-yl)cyclohexyl)azetidin-3-yl)-2-((6-(trifluoromethyl)quinazolin-4-yl)amino)acetamide]
235	CC(C)[C@]1(O)CC[C@H](N2CC(NC(=O)CNc3ncnc4ccc(C(F)(F)F)cc34)C2)CC1 [Example 37, N-(1-((1r,4r)-4-hydroxy-4-isopropylcyclohexyl)azetidin-3-yl)-2-((6-(trifluoromethyl)quinazolin-4-yl)amino)acetamide]
